Laboratory results reported in ChEMBL document CHEMBL5614379, “The synthesis of 1,2,3-triazoles as binders of D-dopachrome tautomerase (D-DT) for the development of dual-targeting inhibitors” (Eur J Med Chem, 2024).
Activity calls are given as the source filed them. The calls are words filed in the database; no cut-off is given here.

Assays:
[1] = molecular target: D-dopachrome decarboxylase (Homo sapiens, UniProt P30046); assay: Inhibition of DDT (unknown origin) expressed in Escherichia coli by absorbance based analysis
[2] = molecular target: T1, Macrophage migration inhibitory factor (Homo sapiens) (UniProt P14174); assay: Non-competitive inhibition of MIF (unknown origin) at 12.5 uM using pyruvic acid as substrate incubated for 10 mins by absorbance based analysis
T1 sequence (whole entry): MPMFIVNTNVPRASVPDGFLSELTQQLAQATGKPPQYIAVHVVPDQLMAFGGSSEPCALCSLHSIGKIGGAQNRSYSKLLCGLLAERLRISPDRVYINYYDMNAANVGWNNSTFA

IC50 [1] | inhibition [2] | Compound
27 µM | – | O=C(O)c1cccc(-c2cc(C(=O)O)ncc2C(=O)O)c1
– | Active | COc1cccc2c1CC(NC(=O)c1cn(-c3ccc(Cl)c(C(F)(F)F)c3)nn1)CC2 (configuration not stated)
